We go through 86 molecules from a melting point compilation (Tetko et al.; mined from patent text by program, amines drawn as free bases though some values may be those of a salt).

Broadly, the melting point is the temperature, or range, at which the solid turns liquid.

Regarding `O=C(O)c1ccccc1Sc1cc(Cl)ccc1C(=O)O`, the melting point lay in the range of 241 to 242 °C.
As for `CCCC(NC(=O)Nc1ccc(Cl)cc1)P(=O)(c1ccccc1)c1ccccc1` (stereo unspecified), the figure is 275 to 278 °C; as for `CC(=O)NC(C)(C)c1ccc(CCl)cc1`, 101 to 103 °C; as for `Cc1ccc(C2C(=O)Oc3c2cc(C(C)(C)C)cc3C(C)(C)C)cc1` (stereo unspecified), 130 to 133 °C.
Next, `CCOC(=O)C1=C(CO)NC(C(F)(F)F)=C(C(=O)OCC)C1c1cccc2nonc12` (stereo unspecified): 110 to 111 °C.
Molecule `O=C1C=C(NC(=O)C(=O)c2cn(Cc3ccc(F)cc3)c3cc4c(cc23)OCO4)CO1` displayed a melting point of 210 to 212 °C.
Next, `CCOC(=O)C=Cc1cc([N+](=O)[O-])ccc1OCCCc1ccccc1`: 117 to 118 °C; `COC(=O)c1cccc(-c2cccc([N+](=O)[O-])c2)c1`: 88 to 89 °C.
Next, `CC1(c2ccccc2)OC(=O)C(Cl)(Cl)C(C(Cl)(Cl)Cl)N1OC(=O)Nc1ccccc1` (stereo unspecified): 154 to 157 °C; `Nc1onc2c1CCC2`: 135 °C.
As for `O=S1(=O)N=C(NCc2ccco2)Nc2cc(Cl)sc21`, the melting point was 224 to 225 °C.
For the molecule `Brc1ccc2c(c1)oc1cc(Br)ccc12`, the melting point was in the range of 199 to 200 °C.
As for `CC(C)N1CCN(c2ccc([N+](=O)[O-])cc2)C(=O)C1`, the figure is 87 to 90 °C.
As for `O=C(O)CNC(COCc1cc(C(F)(F)F)cc(C(F)(F)F)c1)C(c1ccccc1)c1ccccc1` (stereo unspecified), the figure is 116 to 119 °C; as for `CCOc1cccc(-c2ccc(C3=CCN(S(=O)(=O)CC(=O)OC)CC3)cc2C)c1`, 79 to 81 °C; as for `O=C1c2ccccc2C(OCC2CO2)N1c1cccc(Cl)c1` (stereo unspecified), 170 °C.
With `O=C(c1cc(Cc2c[nH]cn2)ccc1O)N1CCCC1`, the melting point was 96 to 98 °C.
Next, `COc1ccc2c(c1)C(c1ccccc1)NC(=O)N2CC(F)(F)F` (stereo unspecified): 168 to 169 °C; `CSC(=O)C(=O)c1ccc2oc(-c3ccccc3)cc2c1`: 124 to 126 °C; `COC(=O)C(C)(C)CCCOc1cc(C)c([N+](=O)[O-])cc1C`: 73 to 75 °C.
Next, `N#Cc1cccc(/C=C/C2=CCN(Cc3c[nH]c4ncccc34)CC2)c1`: 213 to 215 °C.
`CN(C(=O)c1cnc(N2CCNC2=O)nc1N)c1cccc(C(F)(F)F)c1` registered a melting point of 249 to 250 °C.
The molecule `Cc1ccc(C(=O)OC2CCN(Cc3cccc(N)c3)CC2)cc1` returned a melting point of 100 to 102 °C.
As for `CCOC(=O)NC(=O)NC(=NC(=O)Nc1ccc(Cl)cc1)OC`, the figure is 140 to 142 °C; as for `N#CNC(=O)[C@@H]1CCC(=O)N1C(=O)OCc1ccccc1`, 185 to 186 °C; as for `CSc1ccc(-c2nn(Cc3ccc(F)cc3F)c(=S)cc2-c2ccc(Cl)cc2)cc1`, 176 to 177 °C.
Next, `O=C(CCc1oc(-n2ccnc2)nc1-c1ccc(Cl)cc1)NCCCl`: 130 to 131 °C.
With `COc1cc(Oc2ccc(S(C)(=O)=O)cc2)cc2cc(C3=NCC(CC(=O)O)S3)[nH]c12` (stereo unspecified), the melting point lay within 144 to 145 °C.
Take `CC(C(=O)O)c1ccc2c(c1)Cc1cc(O)ccc1-2` (stereo unspecified): the melting point is 205 to 207 °C.
As for `COc1ccc(-c2nnc3c4ccccc4c(Nc4ccc(-c5nn[nH]n5)cc4)nn23)cc1`, the figure is 281 to 284 °C; as for `COc1cc(OC)cc(N2CCN(C(=O)Nc3cc(C(C)(C)O)c(C)nc3OC)CC2)c1`, 146 to 148 °C; as for `CC(=O)N1c2c(ccn3c(C)c(C)nc23)[C@@H](O)[C@H](OC(=O)C(C)(C)C)[C@H]1c1ccccc1`, 103 to 105 °C.
As for `O=C(OC1CCCCCCC1)c1ncn2c1[C@@H]1CCCN1C(=O)c1c(Cl)cccc1-2`, the figure is 183 to 184 °C; as for `CCOC(=O)C1=C(N)OC(C)=C(C(=O)OC)C1c1cc([N+](=O)[O-])ccc1Cl` (stereo unspecified), 159 °C; as for `Fc1ccc2[nH]c(CC3CCN(CC4CCc5ccccc5O4)CC3)cc2c1` (stereo unspecified), 187 to 190 °C.
As for `CC(=O)Oc1c(C(C)(C)C)cc(C=O)cc1C(C)(C)C`, the figure is 65.2 to 74.5 °C.
`COC(=O)C1(C(N)=O)OC1c1ccccc1` (stereo unspecified) showed a melting point of 175 to 177 °C.
In turn, `CC(C)CC(NC(=O)c1ccc(F)cc1SSc1cc(F)ccc1C(=O)NC(CC(C)C)C(=O)O)C(=O)O` (stereo unspecified) showed a melting point of 261 to 262 °C.
Next, `O=C(Nc1ccc(-c2ccnc3c(C(=O)c4cccs4)cnn23)s1)c1ccccc1`: 162 to 165 °C; `CCCCCCC(CC(=O)Nc1cc(C(N)=O)ccc1C(C)(C)C)c1ccc(OC)cc1OC` (stereo unspecified): 152 to 153 °C; `Cc1cccc(NC(=O)Nc2c(-c3ccccc3Cl)c3cc(C)c(C)cc3n(C)c2=O)c1`: 210 to 211 °C.
Next, `CCC(=O)NCc1ccc(NC(=O)/C=C/c2cnn(C)c2-c2ccc(F)cc2)cc1`: 271 to 272 °C; `CCCc1c(Br)c2ccc(C(N)=O)cc2n1Cc1ccccc1Br`: 122 to 125 °C.
Next, `O=C(CC(c1ccccc1)(c1ccccc1)c1ccccc1)Nc1ccc(N2CCNCC2)cc1`: 193 to 195 °C; `CCCCONC(=O)c1nc(-c2ccc(Cl)c(OC)c2F)cc(N)c1Cl`: 130 to 132 °C.
As to `CN(C)C1Cc2cccc3[nH]c(=O)n(c23)C1` (stereo unspecified), the melting point is 220 to 223 °C.
As for `CCCN(CCC)c1nccc2ccc(C(=O)N[C@@H](Cc3cc(F)cc(F)c3)[C@H](O)CNCc3cccc(CC)c3)cc12`, the figure is 142 to 151 °C; as for `CON=C1C(C)(C)c2cc3c(cc2C1(C)C)N(SCc1nccc(OC)c1C)CN3`, 100 °C.
As for `O=Cc1cccc(/C=C/c2ccc3cc(F)ccc3n2)c1`, the figure is 110 to 111 °C.
Next, `Cc1ccc(S(=O)(=O)n2c(I)cc3cc(F)cnc32)cc1`: 158 °C; `C#CC12CC3CC(C1)CC(C#C)(C3)C2`: 46 °C.
Take `CCOC(=O)c1c(C)c(C(=O)C(C#N)C(=O)Nc2ccccc2)n(C)c1C` (stereo unspecified): the melting point is 164 to 166 °C.
As for `O=c1oc2ccccc2c(O)c1CCOc1ccccc1`, the figure is 157 to 159 °C; as for `CCCS(=O)(=O)c1ccc2c(c1)C(=O)C(Br)C2` (stereo unspecified), 87 to 89 °C; as for `CCCCCS(=O)(=O)NC(=O)CCc1ccc(OCCOC)cc1OCc1nc(-c2ccccc2)oc1C`, 95.9 to 96.7 °C.
`CCOC(=O)c1cn2c(C)c(C)nc2c(NCc2c(C)cccc2CC)n1` showed a melting point of 144 °C.
Next, `N=C(NO)c1ccc(N)nc1`: 300 °C.
With `CC(C)(C)c1nc2ccc(Cl)nn2n1`, the melting point fell in the range of 128 to 130 °C.
Next, `COc1c(Br)cc([N+](=O)[O-])cc1-c1c2ccccc2c(Br)c2sc(C)c(C)c12`: 204 to 205 °C; `O=C(O)Cc1ccc(Oc2cccc(C(F)(F)F)c2)cc1`: 61 to 63 °C; `CN1C=CC2=C(C=CCC2)CC1=O`: 81 to 82 °C.
As for `Cc1c(C(=O)NC2CCN(Cc3ccccc3)CC2)c2cc(F)ccc2n1C`, the figure is 169 to 172 °C; as for `CN(c1cc(OCCCS(C)(=O)=O)cc2cc(C3=NCC(CN4CCS(=O)CC4)S3)[nH]c12)S(=O)(=O)c1ccccn1` (stereo unspecified), 107 to 110 °C; as for `O=C(O)c1cc(Oc2c(Br)cc(Br)cc2Br)ccc1[N+](=O)[O-]`, 162 to 170 °C.
On to `O=C(c1ccc(-c2cc[nH]n2)cc1)N1Cc2cccn2Cc2ccccc21`, for which the melting point lay within 219 to 221 °C.
Next, `Cc1ccc(S(=O)(=O)ON2C(=O)c3ccc(C(=O)Cl)cc3C2=O)cc1`: 131 to 133 °C; `C[C@H](c1ccccc1)N1CC(=NO)C2(CCC2)C1=O`: 203 to 208 °C.
As for `CCC(CC)c1ccc(Cl)c2nc3n(c12)CCCCN3c1cccc2c1OC(F)(F)O2`, the figure is 156 to 158 °C; as for `COc1ccc(-c2nc3n(c2-c2ccc(OC)cc2)Cc2ccccc2C3)cc1`, 170 to 172 °C; as for `CCOC(=O)N1CCN(CCNc2ncnc3c2sc2nc(N(C)C)c4c(c23)CC(C)(C)CC4)CC1`, 138 to 140 °C.
As for `CCC(=O)SCC(C)C(=O)N1C(C(=O)O)CC2CCCCC21` (stereo unspecified), the figure is 170 to 172 °C.
Molecule `CC(=O)OCC1OC(n2c(Cl)c(C#N)c3cc(Cl)c(Cl)cc32)C(O)C1O` (stereo unspecified) came in with a melting point of 103 to 104 °C.
Next, `CC1(C)O[C@@H](CC(=O)O)C[C@@H](C=Cc2ccccc2)O1` (relative stereo): 153 to 155 °C.
Next, `COc1cc2c(cc1OC)CCCC(C(=O)O)=C2`: 158 to 159 °C.
As for `COc1ccc2[nH]c3cnc4c(c3c2c1)C(=O)CC(C)(C)C4`, the figure is 230 to 231 °C; as for `CN1CCN(c2cccc3c2C[C@H](NC(=O)c2ccc(OC(F)(F)F)cc2)CO3)CC1`, 192 to 193 °C.
`CC(=O)n1nc(CBr)c(Oc2cc(Cl)cc(C#N)c2)c1C`: the melting point fell in the range of 122 to 123 °C.
Next, `Cn1cc(C(=O)NCc2ccc(Cl)cc2)c(=O)c2cc(CN3CCOc4ccccc43)ccc21`: 193 to 194 °C.
On to `COc1ccc(N2CCN(Cc3n[nH]c4c(F)cccc34)CC2)cc1`, for which the melting point was in the range of 178 to 179 °C.
As for `CCC(=O)N1N=C(c2ccc([N+](=O)[O-])c(C)c2)c2cc3c(cc2CC1C)OCO3` (stereo unspecified), the figure is 172 to 175 °C; as for `COC(=O)c1ccc(C#Cc2cc(C#Cc3ccc(C(=O)OC)cc3)cc(C#Cc3ccc(C(=O)OC)cc3)c2)cc1`, 177 °C.
In turn, `CC(=O)OC1CSC(Oc2cncc(-c3ccncc3)c2)C(OC(C)=O)C1OC(C)=O` (stereo unspecified) came in with a melting point of 138 °C.
Next, `CC(=O)c1ccc(O)c(CC#N)c1`: 154 to 168 °C; `CC1OC(=O)Nc2ccc(-c3cccc(Cl)c3)cc21` (stereo unspecified): 155 to 156 °C.
Next, `CC(C)c1nc2c(c3c1[nH]c1ccccc13)C(=O)CC(C)(C)C2`: 176 to 178 °C; `COc1cccc(OC)c1-c1cc(C(=O)NC2(C(=O)O)C3CC4CC(C3)CC2C4)nn1-c1ccc([N+](=O)[O-])cc1C` (stereo unspecified): 150 °C.
